Measurements from patent US5369096A, “Glycolipid derivatives” (The Nisshin Oil Mills, Ltd., priority 1992, dated 1994).

Assays:
Assay type in all cases: cell-based
[1] = system: human normal lymphocytes adhering to vascular endothelial cells of the normal human umbilical cord; assay: inhibition of adhesion of human normal lymphocytes to rhIL1β-stimulated vascular endothelial cells, oily emulsion; details: 20 μg/ml equivalent; for Amount adhered (fluorescence intensity): rhIL1β 200 U/ml, 485 nm/535 nm
Experimental: (§1) A mixed solution of 6 mg of egg yolk lecithin (manufactured by Nacalaitesque Inc.), 30 μl of soybean oil J. P. (manufactured by Yoshida Seiyaku), 470 μl of distilled water for injection (manufacturedby Otsuka Seiyaku) and 125 μg of a compound of the invention was ultrasonicated (an output of 90 watts) for 10 min. to prepare an oily emulsion. The oily emulsion was further passed through a polycarbonate membrane filter having 0.2 μm average pore diameter (manufactured by Millipore) to provide an average particle size of 0.2 μm.
Vascular endothelial cells of the normal human umbilical cord grown to confluence were stimulated in 24-well plates with 200 U/ml of rhIL1ββat 37° C. for 4 hours. After removal of the supernatant by suction, oily emulsions each prepared from a compound of the invention in an amount of 20 μg/ml equivalent were added except for the rhIL1β-untreated (Sample 1) and treated groups (Samples 2 and 3). The mixtures were then allowed to react at room temperature for 30 min. Subsequently, human normal lymphocytes with 2',7'-bis(carboxyethyl)-5,6-carboxyfluorescence acetoxymethyl ester fluorescent dye enclosed was added at a level of 2×10^6 cells per well followed by centrifugal operation at 100 rpm for 20 min. Each well was washed three times followed by addition of 0.5 ml of 0.5% Triton X-100 and stirring. The contents were divided into 100 μl portions in 96-well plates and measurement was made on a Baxter fluorometer at 485 nm/535 nm.
4: rhIL1β-treated group+2→3 sialyl Lewis X-containing oily emulsion dispersion-treated group
5: rhIL1β-treated group+compound 5E-containing oily emulsion dispersion-treated group (OEG)
(§2) 6: rhIL1β-treated group+compound 5A-containing oily emulsion dispersion-treated group (2EG)
(§3) 7: rhIL1β-treated group+compound 5B-containing oily emulsion dispersion-treated group (3EG)
(§4) 8: rhIL1β-treated group+compound 5C-containing oily emulsion dispersion-treated group (4EG)
(§5) 9: rhIL1β-treated group+compound 5D-containing oily emulsion dispersion-treated group (5EG)
Amount adhered and percent inhibition of adhesion of human normal lymphocytes as measured from fluorescence intensity are shown in Table 5 below.

[2] = system: human normal lymphocytes adhering to vascular endothelial cells of the normal human umbilical cord; assay: inhibition of adhesion of human normal lymphocytes to rhIL1β-stimulated vascular endothelial cells, liposome dispersion; details: 20 μg/ml equivalent; for Amount of human normal lymphocytes adhered (fluorescence intensity): rhIL1β 200 U/ml, 485 nm/535 nm
Experimental: A solution of 200 μg of phosphatidylcholine, 100 μg of cholesterol, 7.5 μg of dicetyl phosphate and 50 μg of a compound of the invention in a mixture of chloroform/methanol=2/1 (ca. 1 ml) was evaporated under reduced pressure to dryness followed by addition of 0.25 ml of a phosphate-buffered saline solution. The mixture was ultrasonicated (an output of 90 watts) for 5 min. and stirred (a vortex mixer) for 5 min. to form a liposome dispersion.
(§6) Vascular endothelial cells of the normal human umbilical cord grown to confluence were stimulated in 24-well plates with 200 U/ml of rhIL1β at 37° C. for 4 hours. After removal of the supernatant by suction, liposome dispersions each prepared from a compound of the invention in an amount of 20 μg/ml equivalent were added except for the rhIL1β-untreated group (sample 1) and the treated groups (samples 2 and 3). The mixtures were then allowed to react at room temperature for 30 min. Subsequently, human normal lymphocytes with 2',7'-bis-(carboxyethyl)-5,6-carboxyfluorescene acetoxymethyl ester fluorescent dye enclosed was added at a level of 2×10^6 cells per well followed by centrifugal operation at 100 rpm for 20 min. Each hole was washed three times followed by addition of 0.5 ml of 0.5% Triton X-100 and stirring. The contents were divided into 100 μl portions in 96-well plates and measurement was made on a Baxter fluorometer at 485 nm/535 nm.
4: rhIL1β-treated group+compound 5A-containing liposome dispersion-treated group (2EG)
5: rhIL1β-treated group+compound 5B-containing liposome dispersion-treated group (3EG)
6: rhIL1β-treated group+compound 5C-containing liposome dispersion-treated group (4EG)
7: rhIL1β-treated group+compound 5D-containing liposome dispersion-treated group (5EG)
Amount adhered and % inhibition of adhesion of human normal lymphocytes as measured from fluorescence intensity are shown in Table 4 below.

[3] = system: HL-60 cancer cells adhering to vascular endothelial cells of the normal human umbilical cord; assay: inhibition of adhesion of HL-60 cancer cells to rhIL1β-stimulated vascular endothelial cells, oily emulsion; details: 20 μg/ml equivalent; for Amount of HL-60 cancer cells adhered (fluorescence intensity): rhIL1β 200 U/ml, 485 nm/535 nm
Experimental: as §1
as §6, with “oily emulsions” for “liposome dispersions”, “promyelocytic leukemia cell line HL-60” for “human normal lymphocytes”, “2',7'-bis(carboxyethyl)-5,6-carboxyfluorescene” for “2',7'-bis-(carboxyethyl)-5,6-carboxyfluorescene”, “1×10^6” for “2×10^6”, “well” for “hole”
4: rhIL1β-treated group+2→3 sialyl Lewis X (natural type)-containing oily emulsion dispersion-treated group
5: rhlL1β-treated group+compound 5E-containing oily emulsion dispersion-treated group (OEG)
as §2, §3, §4, §5
% inhibition of adhesion=100-[(fluorescence intensity for rhIL1β-treated group+compound-free or a compound-containing oily emulsion dispersion-treated group)-(fluorescence intensity for rhIL1β-untreated group)/(fluorescence intensity for rhIL1β-treated group-fluorescence intensity for rhIL1β-untreatedgroup)]×100

Structure (SMILES) | Amount adhered (fluorescence intensity) [1] | Amount of human normal lymphocytes adhered (fluorescence intensity) [2] | Amount of HL-60 cancer cells adhered (fluorescence intensity) [3] | % Inhibition of adhesion [1] | % Inhibition of adhesion ([2]; human normal lymphocytes) | % Inhibition of adhesion ([3]; HL-60 cells)
CCCCCCCCCCCCCCC(CCCCCCCCCCCCCC)C(=O)Nc1ccc(COCCOCCOCCOCCO[C@@H]2O[C@H](CO)[C@@H](O[C@@H]3O[C@H](CO)[C@H](O)[C@H](O[C@]4(C(=O)O)C[C@H](O)[C@@H](NC(C)=O)[C@H]([C@H](O)[C@H](O)CO)O4)[C@H]3O)[C@H](O[C@@H]3O[C@@H](C)[C@@H](O)[C@@H](O)[C@@H]3O)[C@H]2O)cc1 [Compound 5C, O-(5-acetamido-3,5-dideoxy-D-glycero-α-D-galacto-2-nonulopyranosylonic acid)-(2→3)-O-β-D-galactopyranosyl-(1→4)-[O-α-L-fucopyranosyl-(1→3)-O-β-D-glucopyranosyl]-(1→1)-11-O-para-(2-tetradecylhexadecanoyl)aminobenzyl-3,6,9-trioxaundecane-1,11-diol] | 13563 | 10513 | 6762 | – | – | –
CCCCCCCCCCCCCCC(CCCCCCCCCCCCCC)C(=O)Nc1ccc(COCCOCCOCCO[C@@H]2O[C@H](CO)[C@@H](O[C@@H]3O[C@H](CO)[C@H](O)[C@H](O[C@]4(C(=O)O)C[C@H](O)[C@@H](NC(C)=O)[C@H]([C@H](O)[C@H](O)CO)O4)[C@H]3O)[C@H](O[C@@H]3O[C@@H](C)[C@@H](O)[C@@H](O)[C@@H]3O)[C@H]2O)cc1 [Compound 5B, O-(5-acetamido-3,5-dideoxy-D-glycero-α-D-galacto-2-nonulopyranosylonic acid)-(2→3)-O-β-D-galactopyranosyl-(1→4)-[O-α-L-fucopyranosyl-(1→3)-O-β-D-glucopyranosyl]-(1→1)-8-O-para-(2-tetradecylhexadecanoyl)aminobenzyl-3,6-dioxaoctane-1,8-diol] | 10045 | 6993 | 6439 | – | – | –
CCCCCCCCCCCCCCC(CCCCCCCCCCCCCC)C(=O)Nc1ccc(COCCOCCO[C@@H]2O[C@H](CO)[C@@H](O[C@@H]3O[C@H](CO)[C@H](O)[C@H](O[C@]4(C(=O)O)C[C@H](O)[C@@H](NC(C)=O)[C@H]([C@H](O)[C@H](O)CO)O4)[C@H]3O)[C@H](O[C@@H]3O[C@@H](C)[C@@H](O)[C@@H](O)[C@@H]3O)[C@H]2O)cc1 [Compound 5A, O-(5-acetamido-3,5-dideoxy-D-glycero-α-D-galacto-2-nonulopyranosylonic acid)-(2→3)-O-β-D-galactopyranosyl-(1→4)-[O-α-L-fucopyranosyl-(1→3)-O-β-D-glucopyranosyl]-(1→1)-5-O-para-(2-tetradecylhexadecanoyl)aminobenzyl-3-oxapentane-1,5-diol] | 9773 | 6882 | 13287 | 65.8% | 61.9% | 65.3%
CCCCCCCCCCCCCCC(CCCCCCCCCCCCCC)C(=O)Nc1ccc(COCCOCCOCCOCCOCCO[C@@H]2O[C@H](CO)[C@@H](O[C@@H]3O[C@H](CO)[C@H](O)[C@H](O[C@]4(C(=O)O)C[C@H](O)[C@@H](NC(C)=O)[C@H]([C@H](O)[C@H](O)CO)O4)[C@H]3O)[C@H](O[C@@H]3O[C@@H](C)[C@@H](O)[C@@H](O)[C@@H]3O)[C@H]2O)cc1 [Compound 5D, O-(5-acetamido-3,5-dideoxy-D-glycero-α-D-galacto-2-nonulopyranosylonic acid)-(2→3)-O-β-D-galactopyranosyl-(1→4)-[O-α-L-fucopyranosyl-(1→3)-O-β-D-glucopyranosyl]-(1→1)-5-O-para-(2-tetradecylhexadecanoyl)aminobenzyl-3,6,9,12-tetraoxatetradecane-1,14-diol] | 10324 | 8817 | 2782 | – | – | –
